Data reported in US10183914B2 (BAYER CROPSCIENCE AKTIENGESELLSCHAFT, priority 2014, dated 2019).

Tests used:
Matricaria inodora = test: Pre-emergence herbicidal effect; type: in vivo; details: 3 weeks
Excerpt: (§1) Seeds of monocotyledonous and dicotyledonous weed plants and crop plants are laid out in wood-fiber pots in sandy loam and covered with soil. The compounds of the invention, formulated in the form of wettable powders (WP) or as emulsion concentrates (EC), are then applied to the surface of the covering soil as aqueous suspension or emulsion at a water application rate equating to 600 to 800 L/ha with addition of 0.2% wetting agent.
(§2) After the treatment, the pots are placed in a greenhouse and kept under good growth conditions for the trial plants. The damage to the trial plants is scored visually after a trial duration of 3 weeks by comparison with untreated controls (herbicidal activity in percent (%): 100% efficacy=the plants have died, 0% efficacy=like control plants).

Lolium multiflorum = test: Pre-emergence herbicidal effect; type: in vivo; details: 320 g/ha, 3 weeks
Excerpt: as §1, §2

Polygonum convolvulus = test: Pre-emergence herbicidal effect; type: in vivo; details: 320 g/ha, 3 weeks
Excerpt: as §1, §2

Setaria viridis = test: Pre-emergence herbicidal effect; type: in vivo; details: 3 weeks
Excerpt: as §1, §2

Stellaria media = test: Pre-emergence herbicidal effect; type: in vivo; details: 3 weeks
Excerpt: as §1, §2

Viola tricolor = test: Pre-emergence herbicidal effect; type: in vivo; details: 3 weeks
Excerpt: as §1, §2

Amaranthus retroflexus = test: Pre-emergence herbicidal effect; type: in vivo; details: 3 weeks
Excerpt: as §1, §2

Veronica persica = test: Pre-emergence herbicidal effect; type: in vivo; details: 3 weeks
Excerpt: as §1, §2

Oryza sativa [1] = test: Pre-emergence herbicidal effect and crop plant compatibility; type: in vivo; details: 3 weeks
Excerpt: as §1, §2

Zea mays [2] = test: as above; type: in vivo; details: 3 weeks
Excerpt: as §1, §2

[3] = system: Triticum aestivum (spring); test: as above; type: in vivo; details: 3 weeks
Excerpt: as §1, §2

Oryza sativa [4] = test: Post-emergence herbicidal effect and crop plant compatibility; type: in vivo; details: visual scoring after about 3 weeks
Experimental: (§3) Seeds of monocotyledonous and dicotyledonous weed and crop plants are laid out in sandy loam in wood-fiber pots, covered with soil and cultivated in a greenhouse under good growth conditions. 2 to 3 weeks after sowing, the test plants are treated at the one-leaf stage. The compounds of the invention, formulated in the form of wettable powders (WP) or as emulsion concentrates (EC), are then sprayed onto the green parts of the plants as aqueous suspension or emulsion at a water application rate equating to 600 to 800 L/ha with addition of 0.2% wetting agent. After the trial plants have been left to stand in a greenhouse under optimal growth conditions for about 3 weeks, the efficacy of the formulations is scored visually in comparison to untreated controls (herbicidal action in percent (%): 100% efficacy=the plants have died, 0% efficacy=like control plants).

Zea mays [5] = test: as above; type: in vivo; details: visual scoring after about 3 weeks
Experimental: as §3

[6] = system: Triticum aestivum (spring); test: as above; type: in vivo; details: visual scoring after about 3 weeks
Experimental: as §3

[7] = logp (HCOOH), physicochemical characterization
Alopecurus myosuroides = test: Pre-emergence herbicidal effect; type: in vivo; details: 320 g/ha, 3 weeks
Excerpt: as §1, §2

Echinochloa crus-galli [8] = test: Pre-emergence herbicidal effect; type: in vivo; details: 320 g/ha, 3 weeks
Excerpt: as §1, §2

Echinochloa crus-galli [9] = test: Post-emergence herbicidal effect; type: in vivo; details: 320 g/ha, visual scoring after about 3 weeks
Experimental: as §3

| Structure (SMILES) | MATIN herbicidal activity in percent (Matricaria inodora; 80 g/ha) | MATIN herbicidal activity in percent (Matricaria inodora; 320 g/ha) | POLCO herbicidal activity in percent (Polygonum convolvulus) | SETVI herbicidal activity in percent (Setaria viridis; 320 g/ha) | STEME herbicidal activity in percent (Stellaria media; 80 g/ha) | STEME herbicidal activity in percent (Stellaria media; 320 g/ha) | VIOTR herbicidal activity in percent (Viola tricolor; 80 g/ha) | VIOTR herbicidal activity in percent (Viola tricolor; 320 g/ha) | AMARE herbicidal activity in percent (Amaranthus retroflexus; 320 g/ha) | VERPE herbicidal activity in percent (Veronica persica; 80 g/ha) | VERPE herbicidal activity in percent (Veronica persica; 320 g/ha) | ORYSA herbicidal activity in percent (Oryza sativa [1]; 80 g/ha) | ORYSA herbicidal activity in percent (Oryza sativa [1]; 320 g/ha) | ZEAMX herbicidal activity in percent (Zea mays [2]; 80 g/ha) | ZEAMX herbicidal activity in percent (Zea mays [2]; 320 g/ha) | TRZAS herbicidal activity in percent ([3]; 80 g/ha) | post-emergence efficacy ORYSA (Oryza sativa [4]; 80 g/ha) | post-emergence efficacy ORYSA (Oryza sativa [4]; 320 g/ha) | post-emergence efficacy ZEAMX (Zea mays [5]; 80 g/ha) | post-emergence efficacy ZEAMX (Zea mays [5]; 320 g/ha) | also measured |
| --- | --- | --- | --- | --- | --- | --- | --- | --- | --- | --- | --- | --- | --- | --- | --- | --- | --- | --- | --- | --- | --- |
| Cc1ccc2c(c1)[C@H](Nc1ncc3c(n1)CC(C(C)C)CC3=O)[C@@H](C)C2 (some centres unmarked) [2.104] | 80% | 100% | 100% | 100% | 100% | 100% | 90% | 100% | 100% | 100% | 100% | 20% | 20% | 0% | 0% | 0% | 0% | 0% | 0% | 0% | LOLMU herbicidal activity in percent (Lolium multiflorum): 90%; post-emergence efficacy TRZAS ([6]; 80 g/ha): 0%; post-emergence efficacy TRZAS ([6]; 320 g/ha): 0% |
| CC(=O)c1cnc(N[C@@H]2CCCc3ccccc32)nc1C [1.82, 1-{4-methyl-2-[(1R)-1,2,3,4-tetrahydronaphthalen-1-ylamino]pyrimidin-5-yl}ethanone] | 90% | 90% | 80% |  |  | 100% | 100% | 100% | 90% | 100% | 100% | 0% | 3% | 0% |  | 0% |  |  |  |  | AMARE herbicidal activity in percent (Amaranthus retroflexus; 80 g/ha): 90%; TRZAS herbicidal activity in percent ([3]; 320 g/ha): 0%; post-emergence efficacy TRZAS ([6]; 320 g/ha): 0%; chromatographic logP ([7]; HCOOH (formic acid)): 3.03 |
| CC(C)C1CC(=O)c2cnc(N[C@@H]3CCCc4ccccc43)nc2C1 (some centres unmarked) [2.102] | 90% | 100% | 90% | 100% | 100% | 100% | 100% | 100% | 100% | 100% | 100% | 0% | 0% | 0% | 0% | 0% | 0% | 0% | 0% | 0% | ALOMY herbicidal activity in percent (Alopecurus myosuroides): 100%; LOLMU herbicidal activity in percent (Lolium multiflorum): 100%; SETVI herbicidal activity in percent (Setaria viridis; 80 g/ha): 100%; ECHCG herbicidal activity in percent (Echinochloa crus-galli [8]): 100%; AMARE herbicidal activity in percent (Amaranthus retroflexus; 80 g/ha): 80%; TRZAS herbicidal activity in percent ([3]; 320 g/ha): 0%; post-emergence efficacy ECHCG (Echinochloa crus-galli [9]): 100%; post-emergence efficacy TRZAS ([6]; 80 g/ha): 20% |
| O=C1CC(c2ccc(F)cc2)Cc2nc(N[C@@H]3CCCc4ccccc43)ncc21 (some centres unmarked) [2.92] |  | 90% |  | 100% | 100% | 100% | 90% | 100% | 100% | 100% | 100% | 0% | 20% | 0% | 20% | 0% | 0% | 0% | 0% | 0% | ECHCG herbicidal activity in percent (Echinochloa crus-galli [8]): 100%; AMARE herbicidal activity in percent (Amaranthus retroflexus; 80 g/ha): 80%; TRZAS herbicidal activity in percent ([3]; 320 g/ha): 20%; post-emergence efficacy TRZAS ([6]; 80 g/ha): 0%; post-emergence efficacy TRZAS ([6]; 320 g/ha): 10%; logp (HCOOH) [7]: oily; logp (HCOOH): 4.05; 1H-NMR (CDCl3, 400 MHZ, δ in ppm): 1.95 (m, 3H, 2H |
